In the supplement of paper PMC10883282:
± gives the standard deviation of the averaged measurements.

System: G401
Assay: relative viability vs DMSO control (72 h) (fraction); higher = more viable cells
Method in brief: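 After seeding at densities set for 80–90% confluence in 384-well plates, sarcoma cell lines waited 24 h before 2.5 µl of serially diluted compound was added. Source plates held 10 mM down to 0.0002 mM. Plates were incubated 72 h at 37 °C with 5% CO2, with 0.1% DMSO vehicle and a 5 µM positive control, and relative viability was taken from ATPLite as percent growth averaged over up to triplicate wells, with 1 set as full and 0 as none.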

| Structure (SMILES) | relative viability (0.00017 µM) | relative viability (0.00051 µM) | relative viability (0.00152 µM) | relative viability (0.00457 µM) | relative viability (0.01372 µM) | relative viability (0.04115 µM) | relative viability (0.1235 µM) | relative viability (0.3704 µM) | relative viability (1.111 µM) | relative viability (3.333 µM) | relative viability (10 µM) | relative viability (2 pM) | relative viability (5 pM) | relative viability (15 pM) | relative viability (50 pM) | relative viability (0.00014 µM) | relative viability (0.00041 µM) | relative viability (0.0012 µM) | relative viability (0.0037 µM) | relative viability (0.011 µM) | relative viability (200 fM) | relative viability (600 fM) |
| --- | --- | --- | --- | --- | --- | --- | --- | --- | --- | --- | --- | --- | --- | --- | --- | --- | --- | --- | --- | --- | --- | --- |
| CC1(C)CNc2cc(NC(=O)c3cccnc3NCc3ccncc3)ccc21 [Motesanib] | 0.984 ± 0.047 | 0.982 ± 0.042 | 0.973 ± 0.019 | 0.955 ± 0.03 | 0.979 ± 0.015 | 0.962 ± 0.022 | 0.949 ± 0.022 | 0.934 ± 0.036 | 0.9058 ± 0.0034 | 0.84 ± 0.034 | 0.684 ± 0.02 |  |  |  |  |  |  |  |  |  |  |  |
| C[C@@H](c1ccc2nccn2c1)n1nnc2ncc(-c3cnn(C)c3)nc21 [Volitinib] | 1.01 ± 0.029 | 1.01 ± 0.042 | 1.03 ± 0.035 | 1.04 ± 0.044 | 1 ± 0.018 | 1.03 ± 0.019 | 1.03 ± 0.015 | 1.04 ± 0.046 | 1.03 ± 0.049 | 0.987 ± 0.026 | 0.955 ± 0.025 |  |  |  |  |  |  |  |  |  |  |  |
| Cc1ccc(NC(=O)c2ccc(CN3CCN(C)CC3)cc2)cc1Nc1nc(-c2cccnc2)cs1 [Masitinib] | 0.973 ± 0.058 | 0.9736 ± 0.0054 | 0.9669 ± 0.0091 | 0.9556 ± 0.0058 | 0.979 ± 0.026 | 0.971 ± 0.047 | 0.931 ± 0.024 | 0.843 ± 0.056 | 0.687 ± 0.0084 | 0.388 ± 0.014 | 0.0983 ± 0.005 |  |  |  |  |  |  |  |  |  |  |  |
| C=CC(=O)Nc1cccc(Oc2nc(Nc3ccc(N4CCN(C)CC4)cc3)nc3ccsc23)c1 [Olmutinib] | 0.984 ± 0.021 | 0.976 ± 0.048 | 0.969 ± 0.022 | 0.984 ± 0.039 | 0.96 ± 0.03 | 0.986 ± 0.043 | 1 ± 0.041 | 1.01 ± 0.043 | 0.916 ± 0.018 | 0.759 ± 0.019 | 0.481 ± 0.036 |  |  |  |  |  |  |  |  |  |  |  |
| CC(C)(C)c1cc(NC(=O)Nc2ccc(-c3cn4c(n3)sc3cc(OCCN5CCOCC5)ccc34)cc2)no1 [Quizartinib] | 1.02 ± 0.04 | 1.01 ± 0.017 | 1.05 ± 0.048 | 1.06 ± 0.026 | 1.04 ± 0.039 | 0.984 ± 0.052 | 1 ± 0.013 | 0.926 ± 0.011 | 0.971 ± 0.021 | 0.945 ± 0.051 | 0.87 ± 0.023 |  |  |  |  |  |  |  |  |  |  |  |
| CC(C)NC(=O)C1CCC(n2c(NC(=O)c3ccc(F)cc3)nc3ccc(CN4CCC(C(C)(C)O)CC4)cc32)CC1 (centres undefined) [Belizatinib] | 1.01 ± 0.043 | 0.997 ± 0.054 | 1.01 ± 0.061 | 1 ± 0.064 | 1.02 ± 0.022 | 1.01 ± 0.015 | 0.974 ± 0.038 | 0.877 ± 0.026 | 0.606 ± 0.015 | 0.305 ± 0.027 | 0.154 ± 0.02 |  |  |  |  |  |  |  |  |  |  |  |
| Cc1ccc(F)c(NC(=O)Nc2ccc(-c3cccc4[nH]nc(N)c34)cc2)c1 [Linifanib] | 1.03 ± 0.045 | 1.03 ± 0.087 | 0.996 ± 0.021 | 1.02 ± 0.02 | 1.01 ± 0.064 | 0.994 ± 0.01 | 0.956 ± 0.031 | 0.956 ± 0.048 | 0.928 ± 0.04 | 0.915 ± 0.013 | 0.9524 ± 0.0058 |  |  |  |  |  |  |  |  |  |  |  |
| Cc1nc(NC(=O)N2CCC[C@H]2C(N)=O)sc1-c1ccnc(C(C)(C)C(F)(F)F)c1 [Alpelisib] | 1 ± 0.066 | 1.01 ± 0.04 | 0.993 ± 0.041 | 0.946 ± 0.075 | 0.939 ± 0.017 | 0.906 ± 0.079 | 0.864 ± 0.021 | 0.777 ± 0.036 | 0.697 ± 0.07 | 0.577 ± 0.053 | 0.504 ± 0.052 |  |  |  |  |  |  |  |  |  |  |  |
| C[C@]1(O)C[C@@H](c2nc(-c3ccc4ccc(-c5ccccc5)nc4c3)c3c(N)nccn32)C1 [Linsitinib] | 1 ± 0.063 | 0.974 ± 0.026 | 1.02 ± 0.048 | 0.955 ± 0.013 | 0.992 ± 0.023 | 0.894 ± 0.034 | 0.791 ± 0.049 | 0.668 ± 0.013 | 0.627 ± 0.007 | 0.562 ± 0.017 | 0.466 ± 0.026 |  |  |  |  |  |  |  |  |  |  |  |
| C=CC(=O)N1CCC([C@@H]2CCNc3c(C(N)=O)c(-c4ccc(Oc5ccccc5)cc4)nn32)CC1 [Zanubrutinib] | 0.964 ± 0.022 | 0.96 ± 0.023 | 0.99 ± 0.023 | 0.99 ± 0.024 | 0.946 ± 0.044 | 0.957 ± 0.031 | 0.957 ± 0.026 | 0.9805 ± 0.0066 | 0.932 ± 0.035 | 0.872 ± 0.029 | 0.801 ± 0.039 |  |  |  |  |  |  |  |  |  |  |  |
| CCc1cc2c(cc1N1CCC(N3CCOCC3)CC1)C(C)(C)c1[nH]c3cc(C#N)ccc3c1C2=O [Alectinib] | 0.947 ± 0.037 | 0.983 ± 0.023 | 0.977 ± 0.028 | 0.991 ± 0.037 | 0.981 ± 0.026 | 0.954 ± 0.029 | 1.01 ± 0.031 | 1.01 ± 0.056 | 1.03 ± 0.057 | 0.991 ± 0.039 | 0.894 ± 0.037 |  |  |  |  |  |  |  |  |  |  |  |
| C[C@@H]1CCN(C(=O)CC#N)C[C@@H]1N(C)c1ncnc2[nH]ccc12 [Tofacitinib] | 1.07 ± 0.026 | 1.044 ± 0.0027 | 1.06 ± 0.027 | 1.02 ± 0.015 | 1.05 ± 0.012 | 1.05 ± 0.026 | 1.03 ± 0.035 | 1.07 ± 0.048 | 1.04 ± 0.045 | 1.06 ± 0.056 | 1.06 ± 0.037 |  |  |  |  |  |  |  |  |  |  |  |
| CC[C@H](Nc1ncnc2[nH]cnc12)c1nc2cccc(F)c2c(=O)n1-c1ccccc1 [Idelalisib] | 1.06 ± 0.034 | 1.07 ± 0.036 | 1.06 ± 0.051 | 1.05 ± 0.017 | 1.02 ± 0.032 | 0.998 ± 0.036 | 0.987 ± 0.042 | 0.965 ± 0.021 | 0.946 ± 0.013 | 0.877 ± 0.045 | 0.795 ± 0.023 |  |  |  |  |  |  |  |  |  |  |  |
| COc1cc2nccc(Oc3ccc(NC(=O)Nc4cc(C)on4)c(Cl)c3)c2cc1OC [Tivozanib] | 1.01 ± 0.025 | 1.03 ± 0.035 | 1.04 ± 0.025 | 1.04 ± 0.019 | 1.04 ± 0.023 | 0.98 ± 0.044 | 0.992 ± 0.056 | 0.99 ± 0.021 | 0.965 ± 0.034 | 0.713 ± 0.019 | 0.381 ± 0.0095 |  |  |  |  |  |  |  |  |  |  |  |
| COc1cc2c(cc1O)CCN[C@]21CS[C@@H]2c3c(OC(C)=O)c(C)c4c(c3[C@H](COC1=O)N1[C@@H]2[C@H]2c3c(cc(C)c(OC)c3O)C[C@@H]([C@@H]1O)N2C)OCO4 [Trabectedin] |  |  |  |  |  |  |  |  |  |  |  | 1.03 ± 0.017 | 1.02 ± 0.025 | 0.993 ± 0.018 | 0.991 ± 0.014 | 0.832 ± 0.043 | 0.516 ± 0.024 | 0.0964 ± 0.077 | 0.126 ± 0.016 | 0.0862 ± 0.0056 | 1.05 ± 0.032 | 1.03 ± 0.04 |
| N#CC[C@H](C1CCCC1)n1cc(-c2ncnc3[nH]ccc23)cn1 [Ruxolitinib] | 0.971 ± 0.051 | 1.01 ± 0.037 | 1.01 ± 0.034 | 1 ± 0.026 | 1.02 ± 0.02 | 0.969 ± 0.039 | 0.99 ± 0.024 | 0.935 ± 0.047 | 0.942 ± 0.035 | 0.936 ± 0.025 | 0.824 ± 0.034 |  |  |  |  |  |  |  |  |  |  |  |
| Cc1cc(C)c(/C=C2\C(=O)Nc3ccccc32)[nH]1 [Semaxanib] | 0.957 ± 0.044 | 0.981 ± 0.031 | 0.957 ± 0.043 | 0.976 ± 0.037 | 0.964 ± 0.036 | 0.948 ± 0.019 | 0.9755 ± 0.0068 | 0.9895 ± 0.0091 | 0.932 ± 0.046 | 0.904 ± 0.05 | 0.813 ± 0.067 |  |  |  |  |  |  |  |  |  |  |  |
| O=C(Cc1ccc(-c2ccc(OCCN3CCOCC3)cc2)cn1)NCc1ccccc1 [KX2-391] | 1.05 ± 0.047 | 1.05 ± 0.025 | 1.02 ± 0.033 | 1.05 ± 0.036 | 1.022 ± 0.0094 | 0.944 ± 0.027 | 0.555 ± 0.019 | 0.446 ± 0.013 | 0.421 ± 0.013 | 0.38 ± 0.014 | 0.368 ± 0.0095 |  |  |  |  |  |  |  |  |  |  |  |
| COc1cc2c(Oc3ccc4[nH]c(C)cc4c3F)ncnc2cc1OCCCN1CCCC1 [Cediranib] | 0.97 ± 0.055 | 1.03 ± 0.015 | 0.993 ± 0.031 | 0.981 ± 0.059 | 0.995 ± 0.029 | 1.01 ± 0.024 | 0.95 ± 0.024 | 0.828 ± 0.013 | 0.47 ± 0.019 | 0.273 ± 0.02 | 0.00627 ± 0.0033 |  |  |  |  |  |  |  |  |  |  |  |
